From patent US9771353B2, “Kinase inhibitors based upon N-alkyl pyrazoles” (RESPIVERT LIMITED, priority 2013, dated 2017)
Read-outs that look alike come from different tables or passages of the source.

Experiments:
PBMCs [1] = assay: IL-2 and IFN gamma release in CD3/CD28 stimulated PBMC cells, assay (c); assay type: cell-based; details: Homo sapiens
Experimental: PBMCs from healthy subjects are separated from whole blood using a density gradient (Lymphoprep, Axis-Shield Healthcare). Cells are added to a 96 well plate pre-coated with a mixture of CD3/CD28 monoclonal antibodies (0.3 μg/mL eBioscience and 3 μg/mL BD Pharmingen respectively). Compound at the desired concentration is then added to the wells and the plate left for 3 days under normal tissue culture conditions. Supernatants are harvested and IL-2 and IFN gamma release determined by Sandwich ELISA (Duo-set, R&D System). The IC50 is determined from the dose response curve.

HT29 cells = assay: IL-1β-induced IL-8 release in HT29 cells, assay (d); assay type: cell-based; details: Homo sapiens, HT-29, IL-1β-stimulated HT29 cells, read-out: IC50 Values for Inhibition of Cytokine Release, HT29 cells IL-8
Experimental: HT29 cells, a human colon adenocarcinoma cell line, are plated in a 96 well plate (24 hrs) and pre-treated with compounds at the desired concentration for 2 hours before addition of 5 ng/mL of IL-1β (Abcam) for 24 hours. Supernatants are harvested for IL-8 quantification by Sandwich ELISA (Duo-set, R&D System). The IC50 is determined from the dose response curve.

PBMCs [2] = assay: LPS-induced TNFα/IL-8 release in PBMC cells, assay (b); assay type: cell-based; details: Homo sapiens, LPS-stimulated PBMCs, read-out: IC50 Values for Inhibition of Cytokine Release, PBMCs IL-8
Experimental: Peripheral blood mononuclear cells (PBMCs) from healthy subjects are separated from whole blood using a density gradient (Lymphoprep, Axis-Shield Healthcare). The PBMCs are seeded in 96 well plates and treated with compounds at the desired concentration for 2 hours before addition of 1 ng/mL LPS (Escherichia Coli 0111:B4 from Sigma Aldrich) for 24 hours under normal tissue culture conditions (37° C., 5% CO2). The supernatant is harvested for determination of IL-8 and TNFα concentrations by sandwich ELISA (Duo-set, R&D systems) and read on the fluorescence microplate reader (Varioskan® Flash, ThermoFisher Scientific).

d-U937 cells = assay: LPS-induced TNFα/IL-8 release in d-U937 cells, assay (a); assay type: cell-based; details: Homo sapiens, LPS-stimulated dU937 cells
Experimental: U937 cells, a human monocytic cell line, are differentiated to macrophage-type cells by incubation with phorbol myristate acetate (PMA; 100 ng/mL) for 48 to 72 hr. Cells are pre-incubated with final concentrations of test compound for 2 hr and are then stimulated with 0.1 μg/mL of LPS (from E. Coli: O111:B4, Sigma) for 4 hr. The supernatant is collected for determination of TNFα and IL-8 concentrations by sandwich ELISA (Duo-set, R&D systems). The inhibition of TNFα production is calculated as a percentage of that achieved by 10 μg/mL of BIRB796 at each concentration of test compound by comparison against vehicle control. The relative 50% effective concentration (REC50) is determined from the resultant concentration-response curve. The inhibition of IL-8 production is calculated at each concentration of test compound by comparison with vehicle control.

Syk = Syk (Homo sapiens (Human), UniProt P43405); assay: Syk enzyme inhibition (FRET, Z-LYTE); assay type: biochemical
Experimental: (§1) The enzyme inhibitory activities of compounds disclosed herein are determined by FRET using synthetic peptides labelled with both donor and acceptor fluorophores (Z-LYTE, Invitrogen Ltd., Paisley, UK).
The inhibitory activities of compounds of the invention against c-Src and Syk enzymes (Invitrogen), are evaluated in a similar fashion to that described hereinabove. The relevant enzyme (3000 ng/mL or 2000 ng/mL respectively, 2.5 μL) is incubated with the test compound (either 4 μg/mL, 0.4 μg/mL, 0.04 μg/mL, or 0.004 μg/mL, 2.5 μL each) for 2 hr at RT. The FRET peptides (8 μM, 2.5 μL), and appropriate ATP solutions (2.5 μL, 800 μM for c-Src, and 60 μM ATP for Syk) are then added to the enzymes/compound mixtures and incubated for 1 hr. Development reagent (protease, 5 μL) is added for 1 hr prior to detection in a fluorescence microplate reader (Varioskan® Flash, ThermoFisher Scientific).
(§2) In all cases, the site-specific protease cleaves non-phosphorylated peptide only and eliminates the FRET signal. Phosphorylation levels of each reaction are calculated using the ratio of coumarin emission (donor) over fluorescein emission (acceptor), for which high ratios indicate high phosphorylation and low ratios indicate low phosphorylation levels.

GSK3α = GSK3α (Homo sapiens (Human), UniProt P49840); assay: GSK 3α enzyme inhibition (FRET, Z-LYTE), Method 2; assay type: biochemical
GSK3α, sequence (P49840 whole entry): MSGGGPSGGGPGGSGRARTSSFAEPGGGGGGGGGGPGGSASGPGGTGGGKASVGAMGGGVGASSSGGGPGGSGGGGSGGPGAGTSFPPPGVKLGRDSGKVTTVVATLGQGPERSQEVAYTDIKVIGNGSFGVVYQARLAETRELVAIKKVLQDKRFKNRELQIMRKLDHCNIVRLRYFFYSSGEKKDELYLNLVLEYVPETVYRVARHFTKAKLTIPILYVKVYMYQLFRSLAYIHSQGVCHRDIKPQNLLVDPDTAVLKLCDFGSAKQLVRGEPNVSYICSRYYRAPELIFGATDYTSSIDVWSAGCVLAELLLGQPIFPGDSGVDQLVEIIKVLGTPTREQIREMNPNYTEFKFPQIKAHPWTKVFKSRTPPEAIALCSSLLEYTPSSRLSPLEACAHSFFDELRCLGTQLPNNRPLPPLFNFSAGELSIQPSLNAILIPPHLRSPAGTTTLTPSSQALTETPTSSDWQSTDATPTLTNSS
Experimental: as §1
The inhibitory activities of compounds of the invention against the GSK 3α enzyme isoform (Invitrogen), are evaluated by determining the level of activation/phosphorylation of the target peptide. The GSK3-α protein (500 ng/mL, 2.5 μL) is mixed with the test compound (2.5 μL at either 4 μg/mL, 0.4 μg/mL, 0.04 μg/mL, or 0.004 μg/mL) for 2 hr at RT. The FRET peptide (8 μM, 2.5 μL), which is a phosphorylation target for GSK3α, and ATP (40 μM, 2.5 μL) are then added to the enzyme/compound mixture and the resulting mixture incubated for 1 hr. Development reagent (protease, 5 μL) is added for 1 hr prior to detection in a fluorescence microplate reader (Varioskan® Flash, ThermoFisher Scientific).
as §2
This method follows the same steps as Method 1 above, but utilises a shorter period of mixing of the test compound (105 minutes instead of 2 hours) with the GSK3-α protein.

[3] = IL-2, read-out: IC50 Values for Inhibition of Cytokine Release, PBMCs IL-2
[4] = IL-8, read-out: IC50 Values for Inhibition of Cytokine Release, dU937 cells IL-8
[5] = TNFα (method describes REC50 relative to BIRB796), read-out: IC50 Values for Inhibition of Cytokine Release, dU937 cells TNFα

Structure (SMILES)	IC50 (PBMCs [1]; [3]) [µM]	IC50 (HT29 cells) [µM]	IC50 (PBMCs [2]) [µM]	IC50 (d-U937 cells; [4]) [µM]	IC50 (d-U937 cells; [5]) [µM]	IC50 (Syk) [µM]	IC50 (GSK3α) [µM]	IC50 (PBMCs [1]; IFNγ, read-out: IC50 Values for Inhibition of Cytokine Release, PBMCs IFNγ) [µM]
C#Cc1cc(Nc2nccc(Oc3ccc(NC(=O)Nc4cc(C(C)(C)C)nn4C)c4ccccc34)n2)cc(C(=O)NCCN2CCOCC2)c1 [Example 1, 3-((4-((4-(3-(3-(tert-Butyl)-1-methyl-1H-pyrazol-5-yl)ureido)naphthalen-1-yl)oxy)pyrimidin-2-yl)amino)-5-ethynyl-N-(2-morpholinoethyl)benzamide]	0.0175	0.0334	0.0016	0.0067	0.0024	0.149	0.499	–
COCCOCCOCCOc1cc(Nc2nccc(Oc3ccc(NC(=O)Nc4cc(C(C)(C)C)nn4C)c4ccccc34)n2)cc(OC)c1 [Example 2, 1-(3-(tert-Butyl)-1-methyl-1H-pyrazol-5-yl)-3-(4-((2-((3-methoxy-5-(2-(2-(2-methoxy-ethoxy)ethoxy)ethoxy)phenyl)amino)pyrimidin-4-yl)oxy)naphthalen-1-yl)urea]	0.0113	0.0166	0.0036	0.001	0.002	0.543	5.23	0.0062
